Several values for one entry are separate records, joined by “and”; a condition that tells them apart may be missing. Equal entries are not always repeated. Where two headings read alike, the source gives them in different places.
Columns and labels:
GM05757 cells [1] = experiment: PrestoBlue (resazurin) cytotoxicity assay in GM05757 normal fibroblasts
Description: Human CRC cells HCT116 obtained from ATCC were cultured in Eagle’s minimal essential medium (EMEM), while Dulbecco’s modified Eagle medium (DMEM) was used for the normal fibroblast cell line GM05757 purchased from Coriell Institute. These culture media were supplemented with 10% FBS, 26.2 mM sodium bicarbonate, 2 mM L-glutamine, and a mix of penicillin (100 UI/mL) and streptomycin (100 μg/mL). Cells were incubated at 37 °C in a humidified environment with 5% CO2.
Cytotoxic activity was measured with the PrestoBlue method, which consists of a Resazurin-based metabolic assay. Briefly, HCT116 cells (2 × 10^4 cells per well) and GM05757 cells (5 × 10^3 cells per well) were seeded in a 96-well plate and incubated for 24 h. Then, the cells were treated with the Pt drugs at concentrations ranging from 0 to 500 µM for a subsequent 24, 48, and 72 h. […] The final concentration of DMSO was less than 1%. Then, the media were removed, and the cells were washed with warm PBS and exposed with PrestoBlue reagent for an incubation time of 20 min. Changes in cell viability were recorded by fluorescence (λex = 570 nm; λem = 610 nm). […] The fluorescence values measured for blank groups were subtracted from those obtained from the treated and untreated cells.

HCT116 cells [2] = experiment: PrestoBlue (resazurin) cytotoxicity assay in HCT116 cells; assay type: cell-based, human
Description: Human CRC cells HCT116 obtained from ATCC were cultured in Eagle’s minimal essential medium (EMEM), while Dulbecco’s modified Eagle medium (DMEM) was used for the normal fibroblast cell line GM05757 purchased from Coriell Institute. […] Cells were incubated at 37 °C in a humidified environment with 5% CO2.
Cytotoxic activity was measured with the PrestoBlue method, which consists of a Resazurin-based metabolic assay. […] The final concentration of DMSO was less than 1%. Then, the media were removed, and the cells were washed with warm PBS and exposed with PrestoBlue reagent for an incubation time of 20 min. Changes in cell viability were recorded by fluorescence (λex = 570 nm; λem = 610 nm). […] The fluorescence values measured for blank groups were subtracted from those obtained from the treated and untreated cells.

GM05757 cells [3] = details: high AMA
Description: For extraction of HCT116 and GM05757 cell nucleus and cytoplasm, we followed a previously reported procedure. After treatment of HCT116 cells with 1MBq of [^64Cu]Cu-NOTA-C3-TP for 24, 48 and 72 h, CSK buffer (0.5% Triton X-100, 300 mM sucrose, 100 mM NaCl, 1 mM ethylenediaminetetraacetic acid (EDTA), 2 mM MgCl2, and 10 mM HEPES, pH 6.8) were employed for nuclear extraction. After 5 min centrifugation, supernatant was separated, and the retained activity in nuclear plates was counted by a gamma counter (HIDEX Automatic Gamma Counter 2014).

[4] = Plasma stability by radio-TLC; assay type: in vitro ADME, mouse; details: room temperature; radio-iTLC; free 64Cu or fragments
Description: Plasma stability of the compound was assessed by incubating [^64Cu]Cu-NOTA-C3-TP in mouse plasma for 72 h at room temperature. Radio-TLC on C18 plates conducted on 0.1 M sodium citrate buffer at pH 5.5, as a developing solvent, was used to detect free ^64Cu. [^64Cu]Cu-NOTA-C3-TP and free [^64Cu]Cu(OAc)2 were employed as control standards.

[5] = Pt release at physiological pH by mass spectroscopy; assay type: physicochemical; details: physiological pH 7.2, after 72 h
HCT116 cells [6] = experiment: Cellular uptake and internalization in HCT116 cells (gamma counting); assay type: cell-based, human
Description: (§1) HCT116 cells (2 × 10^5 per well) were seeded in 12-well plates for 48 h in EMEM medium completed with 10% FBS at 37 °C until 80% confluence. Cells were washed twice with PBS, and then [^64Cu]Cu-NOTA-C3-TP (0.1 MBq, 50 µL) in EMEM completed medium was added and incubated from 15 min to 72 h to measure cellular uptake and internalization. At each time point, the radioactive media was removed, and cells were washed thrice with cold PBS. To measure the net cellular uptake or internalized fraction, surface-bound Pt drugs were removed by treating with 50 mM glycine in PBS pH 2.2 for 10 min, which was followed by a second cold PBS wash. Then, cells were harvested through trypsinization and counted with a hemocytometer. The radioactivity was measured in a gamma counter (HIDEX Automatic Gamma Counter 2014). The results were expressed as a percentage of added dose (AD) retained per 10^6 cells (%AD/10^6 cells). Parallel experiments were carried out at 4 °C to assess internalization inhibition and surface-bound fraction. For efflux studies, HCT116 cells were incubated for 1 h with 0.1 MBq of [^64Cu]Cu-NOTA-C3-TP. Then, the cells were washed with PBS and fresh culture medium was added. After 0 to 72 h, the medium was removed, and the cells were washed thrice with PBS. Finally, the cells were harvested, and radioactivity was counted with the gamma counter. The results were expressed as percentage of total activity retained by 10^6 cells relative to baseline at 0 min.

HCT116 cells [7] = experiment: Efflux assay in HCT116 cells; assay type: cell-based, human
Description: as §1, with “For efflux studies, HCT116 cells were incubated for 1 h with 0.1 MBq of [^64Cu]Cu-NOTA-C3-TP. Then, the cells were washed with PBS and fresh culture medium was added. After 0 to 72 h, the medium was removed, and the cells were washed thrice with PBS.” left out
For efflux studies, we followed the standard protocol of Fournier et al.. […] The activity retained by the cells was measured from 0 to 72 h post administration.

HCT116 cells [8] = experiment: Subcellular (nucleus/cytoplasm) localization in HCT116 cells; assay type: cell-based, human; details: for Nucleus accumulation HCT116 versus GM05757 (fold reduction in GM05757) / Cytoplasmic distribution / Nucleus localization: high AMA; for Cytoplasmic distribution / Nucleus localization: HCT116
Description: For extraction of HCT116 and GM05757 cell nucleus and cytoplasm, we followed a previously reported procedure [28, 31]. After treatment of HCT116 cells with 1MBq of [^64Cu]Cu-NOTA-C3-TP for 24, 48 and 72 h, CSK buffer (0.5% Triton X-100, 300 mM sucrose, 100 mM NaCl, 1 mM ethylenediaminetetraacetic acid (EDTA), 2 mM MgCl2, and 10 mM HEPES, pH 6.8) were employed for nuclear extraction. After 5 min centrifugation, supernatant was separated, and the retained activity in nuclear plates was counted by a gamma counter (HIDEX Automatic Gamma Counter 2014).

HCT116 cells [9] = details: cited from earlier work
[10] = read-out: EC50 GM05757 24 h, 24 h incubation
[11] = read-out: EC50 GM05757 48 h, 48 h incubation
[12] = read-out: EC50 GM05757 72 h, 72 h incubation
[13] = 24 h incubation, read-out: EC50 HCT116 24 h
[14] = 48 h incubation, read-out: EC50 HCT116 48 h
[15] = 72 h incubation, read-out: EC50 HCT116 72 h
[16] = HCT116, 37 °C, 24 h, % of total activity/10^6 cells
[17] = HCT116, 24 h, low AMA 0.8 to 4.0 MBq/nmol

## O=C1[O][Pt]2([NH][C@@H]3CCCC[C@H]3[NH]2)[O]C1=O [Oxaliplatin, reference compound]
GM05757 cells [1]; [10]
  EC50: > 200 µM
GM05757 cells [1]; [11]
  EC50: 165 ± 9 µM
GM05757 cells [1]; [12]
  EC50: 65 ± 3 µM
HCT116 cells [2]; [13]
  EC50: > 200 µM
HCT116 cells [2]; [14]
  EC50: 64 ± 1 µM
HCT116 cells [2]; [15]
  EC50: 16 ± 4 µM

## O=C([O-])CN1CCN(CCCOc2cc3[n+]4c(c2)-c2cccc[n+]2[Pt-2]4([Cl])[n+]2ccccc2-3)CCN(CC(=O)[O-])CC1.[64Cu+2] [[^64Cu]Cu-NOTA-C3-TP]
GM05757 cells [3]; 24 h
  Cytoplasmic distribution: 46 ± 6%
  Nucleus localization: 1.5 ± 0.2%
GM05757 cells [3]; 48 h
  Cytoplasmic distribution: 53 ± 6.5%
  Nucleus localization: 3 ± 0.4%
GM05757 cells [3]; 72 h
  Cytoplasmic distribution: 58.5 ± 8.3%
  Nucleus localization: 3 ± 0.1%
[4]
  Stability in mouse plasma: stable up to 72 h
[5]
  Pt released: not seen
HCT116 cells [6]; 24 h, 37 °C
  Internalization in HCT116 fold higher than in GM05757: 3.1 fold
HCT116 cells [6]; 48 h, 37 °C
  Internalization in HCT116 fold higher than in GM05757: 1.8 fold
HCT116 cells [6]; 72 h, 37 °C
  Internalization in HCT116 fold higher than in GM05757: 2.1 fold
HCT116 cells [6]; HCT116, 4 °C
  Uptake at 4 °C (passive accumulation), share of conjugate incubated: less than 1%
HCT116 cells [6]; HCT116, 37 °C
  Cell-associated fraction higher than internalized fraction: 2 fold
  Incubation time of maximum accumulation: 24 h
HCT116 cells [6]; HCT116, 37 °C, 15 min incubation, % of total activity/10^6 cells
  Internalized fraction: 0.04 ± 0.02%
HCT116 cells [6]; [16]
  Cell-associated fraction (maximum): 40.0 ± 2.8%
  Internalized fraction (maximum): 18.7 ± 2.8%
HCT116 cells [6]; HCT116, 24 h
  Cellular accumulation times larger than cisplatin: 14.4 times
HCT116 cells [6]; HCT116, 24 h incubation, low AMA
  Cellular accumulation (maximum): 72 ng of Pt/10^6 HCT116 cells
HCT116 cells [6]; HCT116, passive accumulation
  Uptake at 4 °C lower than at 37 °C: ~ 30 fold
HCT116 cells [7]; 72 h post administration
  Conjugate retained by cells: more than 40%
HCT116 cells [7]; first 6 h after 1 h incubation
  Conjugate eliminated (efflux): About 42%
GM05757 cells [1]; low AMA, 24 h
  Cytotoxic activity on GM05757 lower than on HCT116 (fold): at least 3.4 fold
GM05757 cells [1]; read-out: EC50 GM05757 24 h, 24 h, high AMA ≈120 MBq/nmol
  EC50: > 0.066 µM
GM05757 cells [1]; read-out: EC50 GM05757 24 h, 24 h, low AMA 0.8 to 4.0 MBq/nmol
  EC50: > 200 µM
GM05757 cells [1]; read-out: EC50 GM05757 48 h, 48 h, high AMA ≈120 MBq/nmol
  EC50: 0.025 ± 0.005 µM
GM05757 cells [1]; read-out: EC50 GM05757 72 h, 72 h, high AMA ≈120 MBq/nmol
  EC50: 0.019 ± 0.004 µM
GM05757 cells [1]; read-out: EC50 GM05757 72 h, 72 h, low AMA 0.8 to 4.0 MBq/nmol
  EC50: 12 ± 2 µM
HCT116 cells [2]; 5 MBq, low AMA, 24 h incubation
  Viability of HCT116 cells: 22%
HCT116 cells [2]; 8 MBq, low AMA, 24 h incubation
  Viability of HCT116 cells: 17%
HCT116 cells [2]; 24 h, high AMA ≈120 MBq/nmol, read-out: EC50 HCT116 24 h
  EC50: 0.017 ± 0.004 µM
HCT116 cells [2]; 24 h, low AMA 0.8 to 4.0 MBq/nmol, read-out: EC50 HCT116 24 h
  EC50: 59 ± 3 µM
HCT116 cells [2]; 48 h, high AMA ≈120 MBq/nmol, read-out: EC50 HCT116 48 h
  EC50: 0.012 ± 0.006 µM
HCT116 cells [2]; 48 h, low AMA 0.8 to 4.0 MBq/nmol, read-out: EC50 HCT116 48 h
  EC50: 9 ± 2 µM
HCT116 cells [2]; 72 h, high AMA ≈120 MBq/nmol, read-out: EC50 HCT116 72 h
  EC50: 0.006 ± 0.002 µM
HCT116 cells [2]; 72 h, low AMA 0.8 to 4.0 MBq/nmol, read-out: EC50 HCT116 72 h
  EC50: < 5 µM
HCT116 cells [2]; HCT116, 48 and 72 h, low AMA
  Fold more activity relative to [NatCu]Cu-NOTA-C3-TP and NOTA-C3-TP: 5–66 fold
HCT116 cells [2]; HCT116, 24 h, high AMA ≈120 MBq/nmol
  Improvement of cytotoxicity with respect to [NatCu]Cu-NOTA-C3-TP: ~17,000 fold
HCT116 cells [2]; [17]
  Times more active than NOTA-C3-TP: 12 times
  Times more active than [NatCu]Cu-NOTA-C3-TP: 5 times
  Times more active than oxaliplatin: 3.4 times
HCT116 cells [2]; HCT116, 72 h, high AMA ≈120 MBq/nmol
  Improvement of cytotoxicity with respect to [NatCu]Cu-NOTA-C3-TP: > 55,000 fold and 55,000 fold
HCT116 cells [2]; HCT116 vs GM05757, 24 h
  Selectivity toward cancer cells: 3.9
HCT116 cells [2]; high AMA, 24 to 72 h
  Times higher efficiency toward HCT116 relative to GM05757: 2–4 times
HCT116 cells [8]; 24 h
  Increase in HCT116 nucleus uptake relative to [64Cu]Cu(OAc)2: 2.8 fold
  Nucleus accumulation HCT116 versus GM05757 (fold reduction in GM05757): 5.7 fold
  Cytoplasmic distribution: 76 ± 7.3%
  Nucleus localization: 8.6 ± 3% and 8.6%
HCT116 cells [8]; 48 h
  Increase in HCT116 nucleus uptake relative to [64Cu]Cu(OAc)2: 4.9 fold
  Nucleus accumulation HCT116 versus GM05757 (fold reduction in GM05757): 4.4 fold
  Cytoplasmic distribution: 61 ± 11%
  Nucleus localization: 13.4 ± 4%
HCT116 cells [8]; 72 h
  Increase in HCT116 nucleus uptake relative to [64Cu]Cu(OAc)2: 3.7 fold
  Nucleus accumulation HCT116 versus GM05757 (fold reduction in GM05757): 4.1 fold
  Cytoplasmic distribution: 61 ± 8.3%
  Nucleus localization: 12.3 ± 1%

## N.N.[Cl][Pt][Cl] [Cisplatin, reference compound]
HCT116 cells [9]
  Cellular accumulation: 5 ng Pt/10^6 HCT116 cells
GM05757 cells [1]; [10]
  EC50: 88 ± 4 µM
GM05757 cells [1]; [11]
  EC50: 84 ± 2 µM
GM05757 cells [1]; [12]
  EC50: 77 ± 1 µM
HCT116 cells [2]; [13]
  EC50: 31 ± 2 µM
HCT116 cells [2]; [14]
  EC50: 42 ± 8 µM
HCT116 cells [2]; [15]
  EC50: 23 ± 3 µM

## F[P-](F)(F)(F)(F)F.O=C(O)CN1CCN(CCCOc2cc3[n+]4c(c2)-c2cccc[n+]2[Pt-2]4([Cl])[n+]2ccccc2-3)CCN(CC(=O)O)CC1 [NOTA-C3-TP]
GM05757 cells [1]; [10]
  EC50: 504 ± 4 µM
GM05757 cells [1]; [11]
  EC50: 202 ± 5 µM
GM05757 cells [1]; [12]
  EC50: 51 ± 3 µM
HCT116 cells [2]; [13]
  EC50: > 700 µM
HCT116 cells [2]; [14]
  EC50: 63 ± 2 µM
HCT116 cells [2]; [15]
  EC50: 24 ± 1 µM
